From patent US20210278408A1, “METHODS OF TREATMENT OF CANCER WITH SUBSTITUTED PYRROLE AND PYRAZOLE COMPOUNDS AND DIAGNOSIS OF CANCERS SUSCEPTIBLE TO TREATMENT WITH SUBSTITUTED PYRROLE AND PYRAZOLE COMPOUNDS” (Bantam Pharmaceutical, LLC, priority 2018, published 2021) come the findings set out here.

The test system of one assay is Jurkat. In words: Anti-proliferative activity, CellTiter-Glo, 72 hours: Jurkat. To be noted: Homo sapiens, Jurkat (T cell leukemia), Cell-Titre-Glo. The class given is cell-based, human. On the procedure: (§1) Anti-proliferative activity of BTM compounds. The anti-proliferative activities of Compound A197 and Compound B19 were compared to 4EGI-1 (a known cancer cell growth inhibitor) in a panel of 99 tumor lines. Methods: A panel of 96 tumor and 3 normal cell lines were tested for sensitivity to the test compound. The cell lines were cultured in standard media and pipetted into 96-well plates at the required plating densities. The cells were acclimated for 24 hours prior to compound testing. Compound was prepared as a stock of 20 mM in DMSO. To prepare dose response curves compound was serially diluted in DMSO and dispensed into the plate wells using a Tecan D300e digital dispenser. The final DMSO concentration was 0.15%. After 72 hours of incubation cell number was determined using the CellTiter-Glo® protocol according to the manufacturers instructions (Promega). In this assay, ATP is measured as a surrogate of cell number. The activity of the compound is determined by comparing untreated cells with treated cells and calculating the % of signal retained. Compound activity is measured as an EC50 of maximum level of efficacy and the two are used to compute an activity area. The table below provides a comparison of activity in a data sample.

In another assay the test system is LoVo. In words: Anti-proliferative activity, CellTiter-Glo, 72 hours: LoVo. Type of assay: cell-based, human. To be noted: Homo sapiens, LoVo (colorectal cancer), Cell-Titre-Glo. How it is done: as §1
Another assay deals with MDA-MB-157. In words: Anti-proliferative activity, CellTiter-Glo, 72 hours: MDA-MB-157. The note with it: Homo sapiens, MDA-MB-157, 72 h. The class given is cell-based, human. On the procedure: as §1
For orientation: ATP-based viability assays read luminescence as a measure of living cells.

Another assay deals with MDA-MB-231. In words: Anti-proliferative activity, CellTiter-Glo, 72 hours: MDA-MB-231. Type of assay: cell-based, human. The note with it: Homo sapiens, MDA-MB-231 (breast cancer), Cell-Titre-Glo. How it is done:
as §1

A further assay has as its system SU-DHL-10. In words: Anti-proliferative activity, CellTiter-Glo, 72 hours: SU-DHL-10. The class given is cell-based, human. The note with it: Homo sapiens, SU-DHL10, SU-DHL-10 (B-cell lymphoma), Cell-Titre-Glo. How it is done: as §1
In another assay the test system is HUVEC. In words: Anti-proliferative activity, CellTiter-Glo, 72 hours: HUVEC. To be noted: Homo sapiens, HUVEC (primary endolithial cells), Cell-Titre-Glo. Type of assay: cell-based, human. On the procedure: as §1
The subject of another assay is KU812. In words: Cell viability, CellTiter-Glo, 96 h: KU812. The class given is cell-based. To be noted: for IC50: read-out: Absolute IC50. How it is done: Viability was determined by using the 50% inhibitory concentration (IC50) as determined with the CellTiter-Glo® Viability Assay (Promega). All cells were cultured under standard conditions in media supplemented with 10-15% Fetal Bovine Serum, at a temperature of 37° C., 5% CO2 and 95% humidity.
Cells were harvested during the logarithmic growth period, counted, and the cell concentration adjusted to 4.44×10^4 cells/mL using culture medium. A final cell density of 4×10^3 cells/well was added in a 90 μL cell suspension to plates A and B as shown.
Test plate B was incubated for 96 h in the humidified incubator at 37° C. with 5% CO2.
Following the incubation, the plate was equilibrated at room temperature for thirty minutes. CellTiter-Glo® (50 μL) was added to each well of the plate and contents mixed for five minutes on an orbital shaker to induce cell lysis. The luminescent signal was allowed to stabilize at room temperature for 20 minutes and the luminescence recorded.
IC50 (EC50) was calculated using a dose-response curve, fitted using a nonlinear regression model with a sigmoidal dose response. Survival rate was calculated using the formula:
The Surviving rate (%)=(LumTest article−LumMedium control)/(LumNon-treated−LumMedium control)×100%.
Absolute IC50 (EC50) was calculated according to the dose-response curve generated by the statistical software (GraphPad Prism 5.0).

The IC50 is the concentration that inhibits the measured activity by half. Usually % inhibition stands for the share of the control response that was lost under treatment. Lower therefore signals little suppression.

SMILES strings stand for the structures. Read-outs that look alike come from different tables or passages of the source.

Take `COC(=O)c1c(-c2cccc(F)c2)c(C)nn1-c1nc(C2=CCC(C(F)(F)F)CC2)c(SC(C)C)s1` (single isomer, unassigned) [Compound B19, methyl 4-(3-fluorophenyl)-1-(5-(isopropylthio)-4-(4-(trifluoromethyl)cyclohex-1-en-1-yl)thiazol-2-yl)-3-methyl-1H-pyrazole-5-carboxylate]: the half-maximal inhibitory concentration (IC50) was 166 nM in the assay with Jurkat; 116 nM with LoVo; > 30000 nM with MDA-MB-157; > 30000 nM in the assay with MDA-MB-231; 119 nM in the assay on SU-DHL-10; > 30000 nM in the assay with HUVEC.
`N.N.[Cl][Pt][Cl]` [Cisplatin, reference compound]: in the assay with KU812, the “% inhibition at top conc.” value stood at 99.20% and the IC50 amounted to 1950 nM.
As to `Cc1nn(-c2nc(-c3ccc(C(F)(F)F)cc3)c(SC(C)C)s2)c(C(=O)O)c1-c1cccc(F)c1` [Compound A197, 4-(3-fluorophenyl)-1-(5-(isopropylthio)-4-(4-(trifluoromethyl)phenyl)thiazol-2-yl)-3-methyl-1H-pyrazole-5-carboxylic acid], the IC50 in the assay with Jurkat was 179 nM; with LoVo, 123 nM; in the assay on MDA-MB-157, > 30000 nM; in the assay on MDA-MB-231, > 30000 nM; in the assay on SU-DHL-10, 136 nM; with HUVEC it was > 30000 nM. Further, the IC50 in the assay on KU812 (Homo sapiens) is > 30000 nM. In addition, the “% inhibition at top conc.” value in the assay with KU812 worked out at 27.53%.
